Values of other authors, collected in US20220054615A1 (priority 2018, published 2022).

Legend:
[1] = system: human peripheral blood mononuclear cells (PBMCs)
IgG2a = conditions: mouse, in vivo

CCCCCCCCCCCC(=O)CC(=O)N[C@H](COCC[C@@H](CCCCCCC)OC(=O)CCCCCCCCCCC)COP(=O)([O-])OCCNC(=O)NCCOP(=O)([O-])OC[C@@H](COCC[C@@H](CCCCCCC)OC(=O)CCCCCCCCCCC)NC(=O)CC(=O)CCCCCCCCCCC.[Na+].[Na+] [E6020, dodecanoic acid, (1R,6R, 22R, 27R)-1,27-dihexyl-9,19-dihydroxy-9,19-dioxido-14-oxo-6,22-bis [(1,3-di oxotetradecyl)amino]-4,8,10, 18, 20, 24-hexaoxa-13,15-di aza-9,19-dephosphaheptacosane-1,27-diyl ester, disodium salt]
enhance: GM-CSF, IL-1, IL-6 and TNF-α [1] | IgG2a (IgG2a) | GM-CSF, IL-1, IL-6 and TNF-α (mouse spleen)
